Data published in US20130150386A1 (priority 2011, published 2013).

How the values were obtained:
[1] = in vivo; cited from earlier work
NSCLC patients = conditions: E-cad 3+ sub-group [N=26]

Compound | half-life [1] | overall survival (NSCLC patients) [months]
Nc1ccccc1NC(=O)c1ccc(CNC(=O)OCc2cccnc2)cc1 [Entinostat, N-(2-aminophenyl)-4-[N-(pyridine-3-yl)methoxycarbonylamino-methyl]-benzamide] | about 100 hours | 
C#Cc1cccc(Nc2ncnc3cc(OCCOC)c(OCCOC)cc23)c1 [erlotinib/placebo] |  | 5.4
